Patent US8026342B2, “Compositions and methods for binding sphingosine-1-phosphate” (Lpath, Inc., priority 2006, dated 2011)

B1: LT1002: murine anti-S1P monoclonal antibody, IgG1 kappa, from hybridoma clone 306D326.26 (antibody, listed as Mus sp., V domains shown)
VH: QAHLQQSDAELVKPGASVKISCKVSGFIFIDHTIHWMKQRPEQGLEWIGCISPRHDITKYNEMFRGKATLTADKSSTTAYIQVNSLTFEDSAVYFCARGGFYGSTIWFDFWGQGTTLTVS
VL: ETTVTQSPASLSMAIGEKVTIRCITTTDIDDDMNWFQQKPGEPPNLLISEGNILRPGVPSRFSSSGYGTDFLFTIENMLSEDVADYYCLQSDNLPFTFGSGTKLEIK

Legend:
[1] = test system: retinal macrophages; assay: Oxygen induced retinopathy (ROP) model: retinal macrophage infiltration; format: in vivo, C57BL/6 mice; conditions: 5 μg intraocular at day 12, read at day 17
Procedure: At day 17 of life, the mice received an intraocular injection of FITC-labeled antibody to F4/80 (a pan-macrophage marker) and after 8 hours, mice were euthanized. The globes were removed and fixed in PBS-buffered formalin at room temperature for 5 hours. Retinas were dissected and washed with phosphate-buffered saline containing 0.25% Triton X-100 and whole mounted. Slides were viewed with a Nikon Fluorescence Microscope and retinal macrophages were quantified.

[2] = test system: fibroblasts (Swiss 3T3, murine cardiac, WI-38); assay: S1P-stimulated fibroblast proliferation, migration, collagen expression and myofibroblast differentiation; format: cell-based; conditions: 1 μg/mL antibody
Procedure: See Example 7, below, for experimental details. […] In these experiments, fibroblasts were serum-starved and then treated with 0, 0.1, 0.5, or 1 μM S1P+/−1 μg/mL SPHINGOMAB for 12-24 hr. […] SPHINGOMAB neutralized each of these S1P effects. SPHINGOMAB reduced perivascular fibrosis in vivo in a murine model of a permanent myocardial infarction (E).
S1P makes profound contributions to wound healing by activating fibroblast migration, proliferation and collagen production; SPHINGOMAB neutralizes these effects. Several studies using multiple types of fibroblasts confirm S1P's ability to promote wound healing: 1) S1P increased Swiss-3T3 fibroblast proliferation as measured by ^3H-thymidine incorporation using standard methods (FIG. 7A); 2) S1P promoted the migration of cardiac fibroblasts in a standard scratch wound healing assay. […] In each of these assays, SPHINGOMAB neutralized S1P's. It is anticipated that ocular fibroblasts would respond similarly to S1P and SPHINGOMAB.

Molecule | # of macrophages per retina [1] | % reduction in macrophage density [1] [%] | % reduction in macrophage density ([1]; listed as S1P antibody) [%] | effect on S1P-stimulated fibroblast proliferation, migration, collagen expression, myofibroblast differentiation [2]
LT1009: humanized anti-S1P IgG1/kappa mAb with Cys to Ala in HCDR2, light chain with 5 backmutations; SEQ ID NO: 31/32 | 1136 ± 33 | 55 | 55.4 ± 1.3 | –
B1 | – | – | – | neutralized
